Laboratory results reported in patent US20250032510A1, “AMORPHOUS SOLID DISPERSION GANAXOLONE FORMULATION” (MARINUS PHARMACEUTICALS, INC., priority 2021, published 2025).

Assay: DSC miscibility screening of polymer-surfactant-ganaxolone combinations
Format: physicochemical
Conditions: added to all formulations

In the case of `CCCC(CCC)C(=O)O` [Valproic acid], the “Effect of addition on crystallinity of the ganaxolone” value was “increased crystallinity”.
